Tests used:
patients with GVHD = conditions: high-dose prednisone, 2 mg per kg per day; cited from earlier work
[1] = system: patients with gastrointestinal GVHD; conditions: cited from earlier work
[2] = system: patients with Grade II GVHD with gastrointestinal symptoms; assay: Phase III randomized, double-blind, placebo-controlled trial of oral BDP plus 10 days of prednisone: treatment failure and survival; assay type: in vivo, human; conditions: for Treatment failure rate (95% CI): Kaplan-Meier estimate
Excerpt: The Secondary objectives of the study were: • 1. To compare the proportion of treatment failures in the two groups on Study Days 10, 30, 50, 60, and 80. • 2. To compare the treatment groups with respect to cumulative systemic corticosteroid exposure. • 3. […] To compare the treatment groups with respect to total deaths and cause of death through 200 days post-transplant. • 6.
To be eligible for entry into the study, patients must be at least 10 days post allogeneic hematopoietic cell transplantation, have GI symptoms consistent with Grade II GVHD, and have endoscopic evidence of GVHD. The diagnosis of GVHD was confirmed by biopsy of the intestine (esophagus, stomach, small intestine, or colon) or skin.
This was a multi-center, randomized, double-blind, placebo-controlled, parallel-group study in patients with Grade II GVHD with GI symptoms. To determine eligibility for entry into the study, patients must undergo a screening evaluation, including intestinal or skin biopsy and infection work-up.
The randomization was stratified by the source of the allograft (two HLA haplotype identical sibling versus all other), and by topical corticosteroid use (yes versus no). All patients received 10 days of prednisone at 1 mg/kg/day (or an equivalent dose of intravenous [IV] corticosteroid).
For all patients, the second dose of study drug was administered on the morning of Study Day 2, after which dosing was 4 times daily until Study Day 50.
All patients are monitored per standard post transplant routine in the hospital or outpatient clinic. Patients underwent study evaluations, included blood specimens for PK analysis, on Study Days 10, 30, 50, 60, and 80. In addition, adverse events that occurred during the interval since the prior visit are assessed and recorded. Following the final dose of study drug on the morning of Study Day 50, timed blood samples were obtained for up to 24 hours for PK analysis from some patients.
• 1. […] Karnofsky Scale score if the patient is 16 years of age or older or the Lansky Scale score if the patient is younger than 16 years of age.
• 1. Adverse events. • 2. Cumulative prednisone dose (per kg of body weight). • 3. Worsening of GVHD as determined through the assessment of diarrhea, rash, and bilirubin levels. • 4. HPA axis function. • 5. Hematology measurements (with differential, including eosinophils) at Baseline and Study Day 50. • 6. Serum chemistry and urinalysis measurements at Baseline and Study Day 50. • 7. Patient survival through day 200 post-transplant.
The primary efficacy endpoint of this two-arm study is the time to treatment failure. The primary efficacy analysis will compare the time to treatment failure through Study Day 50 using a log-rank test controlling for patient randomization stratum. Product-limit estimates for time to failure will be provided for descriptive purposes. The null hypothesis for the log-rank test is that time to failure is homogeneous across the treatment groups.
Secondary analyses of treatment failure compared the treatment groups with respect to proportion of treatment failures and Karnofsky Scale (or Lansky Scale) scores at key time points.
Both regimens included oral prednisone (1 mg/kg/day) or an equivalent dose of IV methylprednisolone (dose of IV methylprednisolone=0.8×dose of oral prednisone) given in 2 divided doses per day on Study Days 1 to 10.
On Study Day 10, patients were evaluated for the signs and symptoms of GVHD. […] Starting on Study Day 17, physiologic replacement doses of prednisone were given for the remainder of the study. If the investigator determined that GVHD was not controlled on Study Day 10, patients discontinued study drug but continued prednisone initially at 1 mg/kg/day; these patients were considered to be treatment failures. In treatment failure cases, physicians subsequently modified prednisone dosage as deemed appropriate.

## C[C@]12C=CC(=O)C=C1CC[C@@H]1[C@@H]2C(=O)C[C@@]2(C)[C@H]1CC[C@]2(O)C(=O)CO [Prednisone, prednisone]
Patients with GVHD
  complete and sustained remission of gastrointestinal symptoms: 50-70 % of patients

## CCC(=O)OCC(=O)[C@@]1(OC(=O)CC)[C@@H](C)C[C@H]2[C@@H]3CCC4=CC(=O)C=C[C@]4(C)[C@@]3(Cl)[C@@H](O)C[C@@]21C [BDP, beclomethasone dipropionate]
[1]; 8 mg daily oral, BDP alone and added to prednisone
  appetite, oral intake, nausea and diarrhea over the course of therapy: Significant improvement
[1]; 8 mg/day for 28 days
  treatment-related adverse events: No significant treatment-related adverse events
[1]; BDP as monotherapy
  time to improvement: 7 to 10 days
[1]; alone or added to prednisone
  safety and efficacy in mild-to-moderate intestinal GVHD: safe and effective
[2]; 200 days post-transplant, Safety Population
  Day 200 survival rate (95% CI): 0.91 (0.86, 0.98)
[2]; Study Day 10
  Treatment failure rate (95% CI): 0.14 (0.08, 0.24)
[2]; Study Day 30
  Treatment failure rate (95% CI): 0.25 (0.18, 0.37)
[2]; Study Day 50
  Treatment failure rate (95% CI): 0.31 (0.23, 0.43)
[2]; Study Day 60
  Treatment failure rate (95% CI): 0.33 (0.24, 0.45)
[2]; Study Day 80
  Treatment failure rate (95% CI): 0.39 (0.30, 0.52)
[2]; through Day 50, p-value 0.1177
  time to treatment failure through Day 50 (primary endpoint), significance versus placebo: did not achieve statistical significance
[2]; through Day 80, p-value 0.0226
  time to treatment failure through Day 80 (secondary endpoint), significance versus placebo: did achieve statistical significance

Reference: US20100184732A1, “METHOD OF LONG-TERM TREATMENT OF GRAFT-VERSUS-HOST DISEASE USING TOPICAL ACTIVE CORTICOSTEROIDS” (priority 2000, published 2010)
